Experimental data from patent US5939409A, “Processes for the production of anti-inflammatory steroids” (priority 1991, dated 1999).

How the values were obtained:
[1] = test system: Sephadex induced lung edema (lung); experiment: Unwanted systemic effect by orally absorbed glucocorticosteroid, Sephadex induced lung edema; format: in vivo, Sprague Dawley rat; conditions: for ED50: po, read-out: ED50 (p.o. administration), lung: required glucocorticosteroid dose to reduce the edema by 50%; for ED50 / ED50 (p.o. administration), lung: required glucocorticosteroid dose to reduce the edema by 50%: rat, p.o. 2 h before Sephadex (5 mg/kg), lung lobes weighed 20 h later, relative to Sephadex control group; for dose required to inhibit lung edema (ED50) by oral administration relative to dose needed by local application to the lung (lung selectivity): ratio oral ED50 / local lung ED50, rat
Procedure: B. Test model for unwanted systemic effect by orally absorbed glucocorticosteroid
Sprague Dawley rats (250 g) were slightly anaesthetized with Ephrane and after that the GCS test preparation in a volume of 0,5 ml/kg was given orally. Two hours later a suspension of Sephadex (5 mg/kg in a volume of 1 ml/kg) was instilled in the trachea well above the bifurcation so that the suspension reached both the left and the right lung lobes. Twenty hours later, the rats were killed and the lung lobes were weighed. Control groups got saline instead of glucocorticosteroid preparation and saline instead of Sephadex suspension to determine the weight of non-drug treated Sephadex edema and the normal weight.

[2] = test system: Sephadex induced lung edema (left lung lobe); experiment: Local antiinflammatory activity on airway mucosa (left lung lobe), Sephadex induced lung edema, local instillation; format: in vivo, Sprague Dawley rat; conditions: rat; for ED50 (left lung administration), left lung lobe: required glucocorticosteroid dose to reduce the edema by 50% / ED50: left lung instillation 2 h before Sephadex (5 mg/kg), left lung lobe weighed 20 h later, relative to Sephadex control group; for ED50: read-out: ED50 (left lung administration), left lung lobe: required glucocorticosteroid dose to reduce the edema by 50%
Procedure: A. Test model for desired local antiinflammatory activity on airway mucosa (left lung lobe)
Sprague Dawley rats (250 g) were slightly anaesthetized with Ephrane and the glucocorticosteroid test preparation (suspended in saline) in a volume of 0.5 ml/kg was instilled into just the left lung lobe. Two hours later a suspension of Sephadex (5 mg/kg in a volume of 1 ml/kg) was instilled under slight anaesthesia in the trachea well above the bifurcation so that the suspension reached both the left and right lung lobes. Twenty hours later the rats were killed and the left lung lobes dissected out and weighed. Control groups got saline instead of glucocorticosteroid preparation and saline instead of Sephadex suspension to determine the weight of non-drug treated Sephadex edema and the normal lung weight.

SMILES | ED50 [1] [µmol/kg] | ED50 (p.o. administration), lung: required glucocorticosteroid dose to reduce the edema by 50% [1] [nmol/kg] | dose required to inhibit lung edema (ED50) by oral administration relative to dose needed by local application to the lung (lung selectivity) [1] [times] | ED50 (left lung administration), left lung lobe: required glucocorticosteroid dose to reduce the edema by 50% [2] [nmol/kg] | ED50 [2] [µmol/kg] | lung selectivity compared to the selected prior art compound (budesonide) ([1]; in words, oral vs local lung ED50, rat) | local antiinflammatory activity compared with budesonide ([2]; in words, left lung administration)
CCCC1O[C@@H]2C[C@H]3[C@@H]4CCC5=CC(=O)C=C[C@]5(C)[C@H]4[C@@H](O)C[C@]3(C)[C@]2(C(=O)CO)O1 (stereo partly drawn) [Budesonide, reference compound] | 4 | 4000 | 13 | 300 | 0.3 | – | –
CCC[C@@H]1O[C@@H]2C[C@H]3[C@@H]4C[C@H](F)C5=CC(=O)CC[C@]5(C)[C@@]4(F)[C@@H](O)C[C@]3(C)[C@]2(C(=O)CO)O1 [Example 6, (22R)-16α,17α-butylidenedioxy-6α,9α-difluoro-11β,21-dihydroxypregn-4-ene-3,20-dione] | 0.32 | 320 | 32 | 10 | 0.01 | higher lung selectivity | much higher local antiinflammatory activity than budesonide
